Drawing on the supplement of paper PMC10307832, this text covers relative viability for 9 cell lines.

Holding throughout (assay): relative viability (nuclei count vs DMSO), 5 days (fraction); higher = more cells survive
Compound in assay [1]: CCn1c(-c2nonc2N)nc2cnc(Oc3cccc(NC(=O)c4ccc(OCCN5CCOCC5)cc4)c3)cc21 + CC1(C)CCC(c2ccc(Cl)cc2)=C(CN2CCN(c3ccc(C(=O)NS(=O)(=O)c4ccc(N[C@H](CCN5CCOCC5)CSc5ccccc5)c(S(=O)(=O)C(F)(F)F)c4)cc3)CC2)C1 [Navitoclax] (partner 0.5 µM)
A digest of the protocol: (§1)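 Values are medians from duplicate plates. Each reflects relative viability, defined as the nuclei count of treated wells over that of vehicle wells. Lung cancer cell lines in 1536-well plates were pin-tool dosed one day after seeding with one drug alone or with a fixed anchor-drug dose plus five library-drug doses (not always all listed) in √10 steps, then fixed, stained and imaged at 4× after 5 days.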

Compound in assay [2]: CCn1c(-c2nonc2N)nc2cnc(Oc3cccc(NC(=O)c4ccc(OCCN5CCOCC5)cc4)c3)cc21 + CC(=O)c1c(C)c2cnc(Nc3ccc(N4CCNCC4)cn3)nc2n(C2CCCC2)c1=O [Palbociclib] (partner 0.5 µM)
A digest of the protocol:
as §1

Compound in assay [3]: CCC1=CN=CN=C1N2CCN(CC2)CC3=NC4=C(N3)C=C(C=C4)C(F)(F)F + Cc1nc(Nc2ncc(C(=O)Nc3c(C)cccc3Cl)s2)cc(N2CCN(CCO)CC2)n1 [Dasatinib] (partner 0.075 µM)
A digest of the protocol:
as §1

Compound in assay [4]: N=C1NC(=O)/C(=C/c2ccc(O)cc2)S1 [Mirin] + NC(=O)Nc1cc(-c2cccc(F)c2)sc1C(=O)N[C@H]1CCCNC1 [AZD7762] (partner 0.2 µM)
The procedure, abridged:
as §1

In the case of Calu-6, the relative viability in assay [1] (first compound 0.04 µM) is 0.835; in assay [1] (first compound 0.1265 µM) it was 0.759; in assay [1] (first compound 0.4 µM), 0.64; in assay [1] (first compound 1.265 µM), 0.353; in assay [1] (first compound 4 µM) it was 0.306.

Regarding ChaGo-K-1, the relative viability in assay [2] (first compound 0.04 µM) is 1.08; in assay [2] (first compound 0.1265 µM), 0.896; in assay [2] (first compound 0.4 µM), 0.846; in assay [2] (first compound 1.265 µM) it was 0.907; in assay [2] (first compound 4 µM), 0.928; in assay [3] (first compound 0.04 µM), 0.654. Moreover, the relative viability in assay [3] (first compound 0.1265 µM) stood at 0.635; in assay [3] (first compound 0.4 µM) it was 0.555; in assay [3] (first compound 1.265 µM), 0.615; in assay [3] (first compound 4 µM), 0.492; in assay [1] (first compound 0.04 µM) it was 1.42; in assay [1] (first compound 0.1265 µM), 0.876. Further, the relative viability worked out at 0.762 in assay [1] (first compound 0.4 µM); 0.712 in assay [1] (first compound 4 µM); 0.832 in assay [4] (first compound 0.25 µM); 0.825 in assay [4] (first compound 0.7906 µM); 0.868 in assay [4] (first compound 2.5 µM); 0.835 in assay [4] (first compound 7.906 µM). The relative viability in assay [4] (first compound 25 µM) worked out at 0.755.

In the case of EBC-1, the relative viability in assay [1] (first compound 0.04 µM) came out at 0.519; in assay [1] (first compound 0.1265 µM), 0.341; in assay [1] (first compound 0.4 µM), 0.429; in assay [1] (first compound 1.265 µM), 0.323; in assay [1] (first compound 4 µM), 0.261.

As for EKVX, the relative viability came to 0.566 in assay [2] (first compound 0.04 µM); 0.368 in assay [2] (first compound 0.1265 µM); 0.365 in assay [2] (first compound 0.4 µM); 0.348 in assay [2] (first compound 1.265 µM); 0.329 in assay [2] (first compound 4 µM); 0.558 in assay [3] (first compound 0.04 µM). Also, the relative viability is 0.484 in assay [3] (first compound 0.1265 µM); 0.527 in assay [3] (first compound 0.4 µM); 0.491 in assay [3] (first compound 1.265 µM); 0.415 in assay [3] (first compound 4 µM); 1.13 in assay [1] (first compound 0.04 µM); 1.01 in assay [1] (first compound 0.1265 µM). In addition, the relative viability in assay [1] (first compound 0.4 µM) was found to be 0.861; in assay [1] (first compound 1.265 µM), 0.895; in assay [1] (first compound 4 µM), 0.831; in assay [4] (first compound 0.25 µM) it was 0.631; in assay [4] (first compound 0.7906 µM), 0.709; in assay [4] (first compound 2.5 µM), 0.771. The relative viability was determined as 0.727 in assay [4] (first compound 7.906 µM) and 0.689 in assay [4] (first compound 25 µM).

EMC-BAC-2: the relative viability came out at 0.517 in assay [2] (first compound 0.04 µM); 0.458 in assay [2] (first compound 0.1265 µM); 0.397 in assay [2] (first compound 0.4 µM); 0.369 in assay [2] (first compound 1.265 µM); 0.389 in assay [2] (first compound 4 µM); 0.358 in assay [3] (first compound 0.04 µM). Further, the relative viability in assay [3] (first compound 0.1265 µM) worked out at 0.354; in assay [3] (first compound 0.4 µM), 0.322; in assay [3] (first compound 4 µM), 0.289; in assay [1] (first compound 0.04 µM), 1.44; in assay [1] (first compound 0.1265 µM), 1.2; in assay [1] (first compound 0.4 µM), 1.18. The relative viability in assay [1] (first compound 1.265 µM) turned out to be 1.16; in assay [1] (first compound 4 µM), 1.19; in assay [4] (first compound 0.25 µM) it was 0.977; in assay [4] (first compound 0.7906 µM) it was 1.1; in assay [4] (first compound 2.5 µM), 1.26; in assay [4] (first compound 7.906 µM), 0.92. The relative viability in assay [4] (first compound 25 µM) came out at 1.05.

With EPLC-272H, the relative viability amounted to 0.391 in assay [2] (first compound 0.04 µM); 0.406 in assay [2] (first compound 0.1265 µM); 0.302 in assay [2] (first compound 0.4 µM); 0.316 in assay [2] (first compound 1.265 µM); 0.296 in assay [2] (first compound 4 µM); 0.332 in assay [3] (first compound 0.04 µM). Also, the relative viability in assay [3] (first compound 0.1265 µM) came out at 0.33; in assay [3] (first compound 0.4 µM) it was 0.313; in assay [3] (first compound 1.265 µM), 0.291; in assay [3] (first compound 4 µM), 0.421; in assay [1] (first compound 0.04 µM), 1.22; in assay [1] (first compound 0.1265 µM), 1.07. Besides, the relative viability in assay [1] (first compound 0.4 µM) came to 1.1; in assay [1] (first compound 1.265 µM) it was 1.05; in assay [1] (first compound 4 µM), 1.1; in assay [4] (first compound 0.25 µM), 0.239; in assay [4] (first compound 2.5 µM), 0.23; in assay [4] (first compound 7.906 µM) it was 0.227. In addition, the relative viability in assay [4] (first compound 25 µM) is 0.161.

For H3255, the relative viability in assay [2] (first compound 0.04 µM) was found to be 0.293; in assay [2] (first compound 0.1265 µM) it was 0.311; in assay [2] (first compound 0.4 µM) it was 0.318; in assay [2] (first compound 1.265 µM), 0.296; in assay [2] (first compound 4 µM), 0.305; in assay [3] (first compound 0.04 µM), 0.308. In addition, the relative viability was found to be 0.294 in assay [3] (first compound 0.1265 µM); 0.347 in assay [3] (first compound 0.4 µM); 0.367 in assay [3] (first compound 1.265 µM); 0.317 in assay [3] (first compound 4 µM); 0.675 in assay [1] (first compound 0.04 µM); 0.551 in assay [1] (first compound 0.1265 µM). Also, the relative viability in assay [1] (first compound 0.4 µM) worked out at 0.454; in assay [1] (first compound 1.265 µM) it was 0.329; in assay [1] (first compound 4 µM), 0.35; in assay [4] (first compound 0.25 µM), 0.899; in assay [4] (first compound 0.7906 µM), 0.958; in assay [4] (first compound 2.5 µM), 0.943. The relative viability amounted to 0.738 in assay [4] (first compound 7.906 µM) and 0.867 in assay [4] (first compound 25 µM).

On to HCC-44, for which the relative viability amounted to 1.01 in assay [2] (first compound 0.04 µM); 1.01 in assay [2] (first compound 0.1265 µM); 1.02 in assay [2] (first compound 0.4 µM); 1.08 in assay [2] (first compound 1.265 µM); 0.878 in assay [2] (first compound 4 µM); 0.944 in assay [1] (first compound 0.04 µM). The relative viability stood at 1.07 in assay [1] (first compound 0.1265 µM); 1.14 in assay [1] (first compound 0.4 µM); 1 in assay [1] (first compound 1.265 µM); 0.963 in assay [1] (first compound 4 µM); 1.05 in assay [4] (first compound 0.25 µM); 1.22 in assay [4] (first compound 0.7906 µM). For the same cell line, the relative viability came out at 1.04 in assay [4] (first compound 2.5 µM), 1.03 in assay [4] (first compound 7.906 µM) and 1.11 in assay [4] (first compound 25 µM).

Consider IA-LM, for which the relative viability in assay [1] (first compound 0.04 µM) was found to be 1.06; in assay [1] (first compound 0.1265 µM), 1.03; in assay [1] (first compound 0.4 µM) it was 0.781; in assay [1] (first compound 1.265 µM), 0.799; in assay [1] (first compound 4 µM), 0.725.
